Legend:
[1] = Body weight of iodine deficient rats, 2 week study (Example 8); settings: in g (unit assumed)
Description: Rats were dosed with molecular iodine once daily. Food was removed from the rats each morning and ten hours later, each rat was dosed with 80 ug/kg of molecular iodine. An equivalent dose of iodide (80 ug/kg) was given to a control group of rats. The negative control consisted of rats which were dosed with tap water. Rats were weighed daily. At the end of the 2 week study rats were sacrificed and microscopic sections of the mammary gland tissues were stained with hematoxylin and eosin prior to being read by a pathologist.

mammary tissue [2] = assay: Histologic grading of mammary tissue in iodine deficient rats, 4 weeks (Example 12); type: in vivo, Female Sprague-Dawley rats; settings: for Fibroadenomata / Lobular hyperplasia / Periductal fibrosis / Secretion: 4 weeks
Description: (§1) Rats were dosed with molecular iodine once daily. Food was removed from the rats each morning and ten hours later, each rat was dosed with one of three concentrations 0.0010, 0.010 or 0.10 mg/kg of molecular iodine. A dose of iodide (100 ug/kg) was given to a control group of rats. The negative control consisted of rats which were dosed with tap water. At the end of 4 weeks rats were sacrificed and microscopic sections of the mammary gland tissues were stained with hematoxylin and eosin prior to being read by a pathologist.
Six groups of animals were examined: groups 1-3 received daily doses of one of three concentrations of molecular iodine; (4) received the normal diet without perchlorate treatment; (5) received the iodine deficient diet with a water gavage; and (6) received an iodine deficient diet and were dosed with iodide (100 ug/kg). […] The results of this histological grading are shown below in tabular form.

thyroid [3] = assay: Thyroid weight of rats after subchronic oral administration (Sherer et al., cited); type: in vivo, male rats; settings: compared with molecular iodine
Description: The only scientific studies on the relative oral toxicity of molecular iodine and iodide was performed during the early 1990s (Karla Thrall, Ph.D. Thesis, "Formation of Organic By-Products Following Consumption of Iodine Disinfected Drinking Water", Summary and Conclusion Section, Oregon State University, Department of Chemistry, 1992). The weight of a mammals thyroid is one key diagnostic measure used to evaluate the toxicity of an iodine composition. […] Another way to state this is that it required ten time more molecular iodine than iodide to effect animal thyroid function with an orally administered iodine composition.

mammary tissue [4] = assay: Histologic grading of mammary tissue in iodine deficient rats, 2 week study (Example 8); type: in vivo, Female Sprague-Dawley rats
Description: Perchlorate-treated (400 mg/dL NaClO4) municipal tap water was provided ad libitum for the first five days of captivity. […] Each day for the five days preceding the initiation of testing, animals received estrogen (25 ug of 17-βestradiol) suspended in 100 ul of sesame oil injected IM. During the 2 week experiment estrogen (2.5 ug 17-βestradiol) suspended in 100 ul of sesame oil was injected daily. Vaginal smears were taken every other day to insure that rats achieved constant estrus throughout the experiment.
as §1, with “with 80 ug/kg” for “with one of three concentrations 0.0010, 0.010 or 0.10 mg/kg”, “iodine. An equivalent” for “iodine. A”, “iodide (80” for “iodide (100”, “water. Rats were weighed daily.” for “water.”, “of the 2 week study” for “of 4 weeks”
Each group contained 10 animals.
The mammary tissue was graded for lobular hyperplasia, secretions, periductal fibrosis, and fibroadenomatous changes. The scoring system for lobular hyperplasia, secretions, periductal fibrosis graded as positive only those animals showing moderate to severe conditions. […] The results of this histological grading are shown below in tabular form.

thyroid [5] = settings: male rats, cited from earlier work
human = human oral consumption; cited from earlier work
dysplastic mastodynia = settings: women with dysplastic mastodynia; cited from earlier work
mammary glands = settings: compared with iodide; cited from earlier work
thyroid hormones = settings: repeated daily doses; no increase below; cited from earlier work
[6] = function of pH; cited from earlier work

For I [iodide], the “average body weight at end” value ([1]; 80 ug/kg daily, end of 2 weeks) was 235±7.1, the “average body weight at start” value ([1]; 80 ug/kg, start) was 214±6.5 and the Fibroadenomata (mammary tissue [2]; 100 ug/kg daily) was 3/10. For the same molecule, the Lobular hyperplasia (mammary tissue [2]; 100 ug/kg daily) was 4/10, the Periductal fibrosis (mammary tissue [2]; 100 ug/kg daily) was 5/10 and the Secretion (mammary tissue [2]; 100 ug/kg daily) was 5/10. The “formation of fibroadenomata (in words)” value (mammary tissue [2]; iodide 100 ug/kg daily) was “did not substantially alleviate the formation of fibroadenomata”, the “concentration affecting thyroid weight relative to molecular iodine (fold less)” value (thyroid [3]) was 10 fold and the Fibroadenomata (mammary tissue [4]; 80 ug/kg daily gavage, 2 weeks) was 4/10. For the same molecule, the “secretion and fibroadenomata (result in words)” value (mammary tissue [4]; 80 ug/kg daily gavage, 2 weeks) was “displayed increased secretion and fibroadenomata”, the Lobular hyperplasia (mammary tissue [4]; po, 0.08 mg/kg, 336 h) was 4/10 and the Periductal fibrosis (mammary tissue [4]; po, 0.08 mg/kg, 336 h) was 6/10. For the same molecule, the Secretion (mammary tissue [4]; po, 0.08 mg/kg, 336 h) was 4/10, the “increased thyroid weight, dose” value (thyroid [5]; subchronic oral administration) was 10 mg/kg and the “range of human consumption above which there is a health risk” value (human) was 0.150 to 1.0 mg/day.
In the case of II [iodine], the improvement rate (dysplastic mastodynia) is listed as 71%.
With II [molecular iodine] the “formation of fibroadenomata and periductal fibrosis (in words)” value (mammary tissue [2]; 1 ug/kg daily) was “did not substantially alleviate the formation of fibroadenomata and periductal fibrosis”, the Fibroadenomata (mammary tissue [2]; 1 ug/kg daily) was 4/10 and the Lobular hyperplasia (mammary tissue [2]; 1 ug/kg daily) was 4.10. The Periductal fibrosis (mammary tissue [2]; 1 ug/kg daily) was 6/10, the Secretion (mammary tissue [2]; 1 ug/kg daily) was 6/10 and the Fibroadenomata (mammary tissue [2]; 10 ug/kg daily) was 1/10. For the same molecule, the Lobular hyperplasia (mammary tissue [2]; 10 ug/kg daily) was 2/10, the Periductal fibrosis (mammary tissue [2]; 10 ug/kg daily) was 4/10 and the Secretion (mammary tissue [2]; 10 ug/kg daily) was 4/10. For the same molecule, the Fibroadenomata (mammary tissue [2]; 100 ug/kg daily) was 1/10, the Lobular hyperplasia (mammary tissue [2]; 100 ug/kg daily) was 2/10 and the Periductal fibrosis (mammary tissue [2]; 100 ug/kg daily) was 2/10. For the same molecule, the Secretion (mammary tissue [2]; 100 ug/kg daily) was 3/10, the “formation of fibroadenomata and periductal fibrosis (in words)” value (mammary tissue [2]; 10 and 100 ug/kg daily) was “substantially reduced the formation of fibroadenomata and periductal fibrosis” and the “diminishing ductal hyperplasia and perilobular fibrosis in the mammary glands” value (mammary glands) was “distinctly more effective in diminishing ductal hyperplasia and perilobular fibrosis in the mammary glands than iodide”. The “dose at which an increase in steady state levels of thyroid hormones was measured” value (thyroid hormones) was 10 mg per kilogram of body weight, the “did not effect thyroid weight even at concentrations of” value (thyroid [5]; no effect up to this dose, oral) was 100 mg/kg and the stability in water [6] was “unstable in water”.

From patent US5885592A, “Methods and pharmaceutical compositions for oral delivery of molecular iodine” (priority 1997, dated 1999)
